Measured values published in US20240000767A1, “COMBINATION OF AN ALPHA2-ADRENOCEPTOR SUBTYPE C (ALPHA-2C) ANTAGONIST WITH A TASK1/3 CHANNEL BLOCKER FOR THE TREATMENT OF SLEEP APNEA” (Bayer Aktiengesellschaft, priority 2020, published 2024).

Key:
[1] = target: T1, human ADRA2C receptor (Homo sapiens (Human), UniProt P18825); test: In vitro radioligand binding studies ([3H] rauwolscine competition) at the human adrenoreceptor ADRA2C; details: for IC50: 0.5 nM [3H] rauwolscine, homogenates of CHO-K1 cells expressing human ADRA2C, 1 h at 4° C., read-out: hARα2C IC50; for Ki: calculated from IC50 and Kd with the Cheng Prusoff equation, read-out: hARα2C Ki
T1 sequence (P18825 whole entry): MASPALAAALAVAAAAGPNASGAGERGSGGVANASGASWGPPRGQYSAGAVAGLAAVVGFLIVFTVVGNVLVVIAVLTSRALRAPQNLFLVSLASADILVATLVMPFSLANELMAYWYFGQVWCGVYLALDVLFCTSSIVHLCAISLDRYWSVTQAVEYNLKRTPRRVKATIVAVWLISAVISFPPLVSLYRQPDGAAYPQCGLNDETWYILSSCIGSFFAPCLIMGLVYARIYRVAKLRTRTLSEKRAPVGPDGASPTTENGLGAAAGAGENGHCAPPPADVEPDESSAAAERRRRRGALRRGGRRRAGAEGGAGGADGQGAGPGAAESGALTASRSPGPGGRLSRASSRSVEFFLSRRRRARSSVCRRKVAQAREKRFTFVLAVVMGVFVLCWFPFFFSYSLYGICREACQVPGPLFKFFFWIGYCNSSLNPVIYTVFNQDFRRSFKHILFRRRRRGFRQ
Protocol: B-1 In Vitro Radioligand Binding Studies for Determination of the Dissociation Constants K1 at the Human Adrenoreceptor ADRA2C (Eurofins Panlabs Discovery Services, Taiwan, Ltd)
A competition assay based on [^3H] rauwolscine as radioliganden was used to determine the binding affinity of the test substances at the human ADRA2C receptor.
To configure the competition assay, the equilibrium dissociation constant Kd of the radioligand [^3H] rauwolscine was determined in a saturation experiment. To this end, homogenates of CHO-K1 cells recombinantly expressing the human ADRA2C receptor were incubated with increasing concentrations of the radiotracers for 1 h at 4° C. in binding buffer (50 mM Tris-HCl, 1 mM EDTA, pH 7.4). Unspecific binding was determined by addition of an excess of the not radioactively labelled ligand prazosin (10 μM). The radioactivity was determined in a scintiation counter.
The competition experiments were carried out in the presence of 0.5 nM [^3H] rauwolscine and increasing concentrations of the test substances to be characterized under the conditions described above.
From the IC50 value measured in the competition experiment and the […] from the saturation experiment, the equilibrium constant Ki of the inhibitor, which describes the affinity of the test substances to the receptor, was calculated using the Cheng Prusoff equation [Cheng Y, Prusoff WH. Relationship between the inhibition constant (Ki) and the concentration of inhibitor which causes 50 percent inhibition (I50) of an enzymatic reaction. […] PMID 4202581 PMID: 4202581].

[2] = target: T1, human ADRA2C receptor; test: In vitro activity assay to determine the inhibition of recombinant ADRA2C (CHO-K1 cells, aequorin bioluminescence); format: cell-based; details: inhibition of noradrenaline-induced bioluminescence signal; some mean values from multiple determinations; read-out: ARα2C IC50
How it was run: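 IC50 is the concentration halving the agonist (noradrenaline)-evoked rise in aequorin luminescence, fitted by 4-parameter Hill function. Read in stable Gαq/aequorin CHO-K1 cells expressing recombinant human ADRA2C.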

Row | IC50 [1] [nM] | Ki [1] [nM] | IC50 [2] [nM] | SMILES
1 | 5 | 2 | 2.9 | COCC1CCCN(C2CCN(c3ncc(C(=O)NCc4ncc(F)cc4F)s3)CC2)C1 (single isomer, unassigned) [Example 100, ent-N-[(3,5-Difluoropyridin-2-yl)methyl]-2-[3-(methoxymethyl)[1,4′-bipiperidin]-1′-yl]-1,3-thiazole-5-carboxamide]
2 | 54 | 24 | 121 | C[C@@H]1CCCN(C2CCN(c3ncc(C(=O)NCc4ncc(F)cc4F)s3)CC2)C1 [Example 1, N-[(3,5-Difluoropyridin-2-yl)methyl]-2-[(3R)-3-methyl[1,4′-bipiperidin]-1′-yl]-1,3-thiazole-5-carboxamide]
